Measured values taken from US20250332157A1, “SOLID COMPOSITION OF GLP-1 RECEPTOR AGONIST” (Hangzhou Zhongmeihuadong Pharmaceutical Co., Ltd., priority 2021, published 2025).
Several values for one entry are separate records, joined by “and”; a condition that tells them apart may be missing. Identical values can stand only once. Counter-ions that a name gives are not always drawn. Values belong to the compound of their own block, whether it stands above or below them.

Experiments:
[1] = Forced degradation studies No. 2 of OAD2 2HCl in solution (water, HCl, NaOH, H2O2, UV light), HPLC; format: physicochemical
Experimental: A stock solution was prepared by dissolving 12.90 mg of OAD2 2 HCl in acetonitrile:water (70:30) to a final volume of 25 mL ([…]). For test groups 1 and 2, the test solution was prepared by mixing 2 mL of the stock solution and 2 mL of water. For test groups 3 and 4, the test solution was prepared by mixing 2 mL of the stock solution and 2 mL of 0.1 N HCl solution. For test groups 5 and 6, the test solution was prepared by mixing 2 mL of the stock solution and 2 mL of 0.1 N NaOH solution. Test groups 1, 3, and 5 (at room temperature) were shielded from light by wrapping with aluminum foil.
A stock solution was prepared by dissolving 5.37 mg of OAD2 2HCl in acetonitrile:water (40:60) to a final volume of 10 mL ([…]). For test group 7, the test solution was prepared by mixing 2 mL of the stock solution and 2 mL of 3% aqueous H2O2. For test group 8, the test solution was prepared by dissolving 5.58 mg to 5.64 mg of OAD2 2HCl in acetonitrile:water (40:60) to a final volume of 25 mL.
The samples in each test group were stored either at room temperature or at 60° C. and observed after the periods indicated in the Table below.
A validated, reverse phase liquid chromatography gradient method was applied to determine assay (content of the active ingredient). The column used was Supelco Ascentis Express RP-Amide, 150×3.0 mm, 2.7μ or equivalent column. Mobile phase A comprises 0.05% TFA in water (v/v). Mobile phase B comprises 0.05% TFA in acetonitrile:methanol (1:2) (v/v). The sample was run using a step gradient from time zero (50% mobile phase A) to 38 minutes (99% mobile phase B). The diluent used to dissolve the standard and sample was a 60:40 mixture of acetonitrile and water. Chromatographic peaks were detected using UV detector at 280 nm. Assay value was obtained by comparing peak responses, expressed as the peak area of a sample formulation of known concentration and the peak area obtained from a standard formulation of known concentration.
The impurities were quantitated using the assay procedure described above. […]

[2] = Forced degradation experiment of active ingredient (acid, alkali, oxidation, high temperature, light, high humidity), HPLC; format: physicochemical; parameters: Impurity B / Impurity E / Impurity F / Impurity G / Impurity I / Largest unknown impurity: unit not given here
Experimental: Preparation of solutions: • (1) destructive test article solution: 25 mg of OAD2 or a pharmaceutically acceptable salt thereof was placed into a 50 ml measuring flask. Diluent was added to dissolve it and the mixture was diluted to the scale mark, shaken well and used as a test article solution. • (2) test article solution destructed by acid: 25.35 mg of OAD2 or a pharmaceutically acceptable salt thereof was placed into a 50 ml measuring flask. 2 ml of 1 mol/L hydrochloric acid was added, and the mixture was mixed, stood at room temperature for 24 h, adjusted pH to neutral with 1 mol/L sodium hydroxide solution. Diluent was added to dilute the mixture to the scale mark. The mixture was shaken well, and used as the test article solution destructed by acid. • (3) test article solution destructed by alkali: 26.64 mg of OAD2 or a pharmaceutically acceptable salt thereof was placed into a 50 ml measuring flask. 2 ml of 1 mol/L sodium hydroxide solution was added, and the mixture was mixed, stood at room temperature for 24h, adjusted pH to neutral with 1 mol/L hydrochloric acid solution. Diluent was added to dilute the mixture to scale mark. The mixture was shaken well, and used as test article solution destructed by alkali. • (4) acid-base blank: 2 ml of 1 mol/L sodium hydroxide solution was placed into a 50 ml measuring flask. The solution was neutralized with 1 mol/L hydrochloric acid solution, then diluted to the scale mark with a diluent, and shaken well to serve as the acid-base destruction blank solution. • (5) test article solution destructed by oxidation: 28.10 mg of OAD2 or a pharmaceutically acceptable salt thereof was placed into a 50 ml measuring flask. 2 ml of 15% hydrogen peroxide was added, stood at room temperature for 9 h. The mixture was diluted to the scale mark with a diluent. […] It was dissolved and diluted to the scale mark with a diluent, shaken well, and used as the test article solution destructed by high temperature. • (8) test article solution destructed by light exposure: 25.12 mg of OAD2 or pharmaceutically acceptable salt thereof was accurately weighted, placed into a 50 ml measuring flask, stood under irradiation of light 4500 Lx+−500 Lx for 6 days. It was dissolved and diluted to the scale mark with a diluent, shaken well, and used as the test article solution destructed by light exposure. • (9) test article solution destructed by high-humidity destruction: 25.71 mg of OAD2 or a pharmaceutically acceptable salt thereof was placed into a 50 ml measuring flask, then the measuring flask was placed into a drier with KNO3 saturated solution at the bottom (humidity was 92.5%), stood for 5 days. It was dissolved and diluted to the scale mark with a diluent, shaken well, and used as the test article solution destructed by high-humidity destruction. • (10) blank solution that is not destructed, not destructed by high-temperature, not destructed by high-humidity and not destructed by light exposure: a diluent.
The measuring method: 2 μl of each of the above solutions (1)-(10) was injected into a liquid chromatograph, and the chromatograms were recorded. Among them, the results of the forced degradation experiment are shown in Table 13.1, and the results of the changes of various impurity components after the forced degradation are shown in Table 13.2. […]

[3] = test group 7: 1.5% solution of H2O2, RT, after 90 minutes

- growth of impurities by HPLC [1, 3]: significant increase in impurities
- loss of active ingredient [1, 3]: 10%
Compound: CC[C@@H](c1ccccc1)N1Cc2cc3c(cc2C[C@H]1C(=O)N[C@@H](Cc1ccc(-c2ccnc(C)c2C)cc1)C(=O)O)OC[C@H](c1ccc(OCc2ccc(Cl)c(Cl)c2)cc1)O3 [OAD2 dihydrochloride, (S)-2-(3S,8S)-3-(4-(3,4-dichlorobenzyloxy)phenyl-7-((S)-1-phenylpropyl)-2,3,6,7,8,9-hexahydro-[1,4]-dioxino[2,3-g]isoquinolin-8-formylamino)-3-(4-(2,3-dimethylpyridin-4-yl)phenyl)propanoic acid dihydrochloride]
- growth of impurities or loss of active ingredient by HPLC ([1]; test groups 1-6 and 8: water, 0.05N HCl, 0.05N NaOH at RT or 60° C., 1 and 2 days, UV light (365 nm) RT 24 hours): no substantial growth in any impurities or loss of active ingredient

- Impurities C + D ([2]; Acid destruction): 0.03%
- Impurity A ([2]; Acid destruction): 0.13
- Impurity B ([2]; Acid destruction): Undetected
- Impurity E ([2]; Acid destruction): Undetected
- Impurity F ([2]; Acid destruction): 0.34
- Impurity G ([2]; Acid destruction): 0.05
- Impurity H ([2]; Acid destruction): Undetected
- Impurity I ([2]; Acid destruction): Undetected
- Largest unknown impurity ([2]; Acid destruction): 0.07
- Number of impurities (≥0.05%) ([2]; Acid destruction): 4
- Purity of main peak ([2]; Acid destruction): 99.4%
- Total Impurities ([2]; Acid destruction): 0.65%
- Impurities C + D ([2]; Alkali destruction): 0.05%
- Impurity A ([2]; Alkali destruction): 0.13
- Impurity B ([2]; Alkali destruction): 0.02
- Impurity E ([2]; Alkali destruction): Undetected
- Impurity F ([2]; Alkali destruction): 0.36
- Impurity G ([2]; Alkali destruction): 0.07
- Impurity H ([2]; Alkali destruction): Undetected
- Impurity I ([2]; Alkali destruction): Undetected
- Largest unknown impurity ([2]; Alkali destruction): 0.07
- Number of impurities (≥0.05%) ([2]; Alkali destruction): 4
- Purity of main peak ([2]; Alkali destruction): 99.3%
- Total Impurities ([2]; Alkali destruction): 0.73%
- Impurities C + D ([2]; High humidity destruction): 0.04%
- Impurity A ([2]; High humidity destruction): 0.12
- Impurity B ([2]; High humidity destruction): Undetected
- Impurity E ([2]; High humidity destruction): 0.01
- Impurity F ([2]; High humidity destruction): 0.31
- Impurity G ([2]; High humidity destruction): 0.04
- Impurity H ([2]; High humidity destruction): Undetected
- Impurity I ([2]; High humidity destruction): Undetected
- Largest unknown impurity ([2]; High humidity destruction): 0.08
- Number of impurities (≥0.05%) ([2]; High humidity destruction): 3
- Purity of main peak ([2]; High humidity destruction): 99.3%
- Total Impurities ([2]; High humidity destruction): 0.68%
- Impurities C + D ([2]; High temperature destruction): 0.08%
- Impurity A ([2]; High temperature destruction): 1.76
- Impurity B ([2]; High temperature destruction): 0.97
- Impurity E ([2]; High temperature destruction): 0.08
- Impurity F ([2]; High temperature destruction): 0.26
- Impurity G ([2]; High temperature destruction): 0.09
- Impurity H ([2]; High temperature destruction): 0.02
- Impurity I ([2]; High temperature destruction): Undetected
- Largest unknown impurity ([2]; High temperature destruction): 2.36
- Number of impurities (≥0.05%) ([2]; High temperature destruction): 25
- Purity of main peak ([2]; High temperature destruction): 92.2%
- Total Impurities ([2]; High temperature destruction): 7.8%
- Impurities C + D ([2]; Light exposure destruction): 0.01%
- Impurity A ([2]; Light exposure destruction): 1.13
- Impurity B ([2]; Light exposure destruction): 0.26
- Impurity E ([2]; Light exposure destruction): 0.12
- Impurity F ([2]; Light exposure destruction): 0.22
- Impurity G ([2]; Light exposure destruction): 0.03
- Impurity H ([2]; Light exposure destruction): 0.38
- Impurity I ([2]; Light exposure destruction): Undetected
- Largest unknown impurity ([2]; Light exposure destruction): 0.78
- Number of impurities (≥0.05%) ([2]; Light exposure destruction): 24
- Purity of main peak ([2]; Light exposure destruction): 93.1%
- Total Impurities ([2]; Light exposure destruction): 6.9%
- Impurities C + D ([2]; No destruction): 0.05%
- Impurity A ([2]; No destruction): 0.12
- Impurity B ([2]; No destruction): Undetected
- Impurity E ([2]; No destruction): Undetected
- Impurity F ([2]; No destruction): 0.31
- Impurity G ([2]; No destruction): 0.03
- Impurity H ([2]; No destruction): Undetected
- Impurity I ([2]; No destruction): Undetected
- Largest unknown impurity ([2]; No destruction): 0.07
- Number of impurities (≥0.05%) ([2]; No destruction): 3
- Purity of main peak ([2]; No destruction): 99.4%
- Total Impurities ([2]; No destruction): 0.6%
- Impurities C + D ([2]; Oxidative destruction): 0.18%
- Impurity A ([2]; Oxidative destruction): 0.36
- Impurity B ([2]; Oxidative destruction): 2.77
- Impurity E ([2]; Oxidative destruction): Undetected
- Impurity F ([2]; Oxidative destruction): 0.26
- Impurity G ([2]; Oxidative destruction): 0.20
- Impurity H ([2]; Oxidative destruction): Undetected
- Impurity I ([2]; Oxidative destruction): 0.02
- Largest unknown impurity ([2]; Oxidative destruction): 2.56
- Number of impurities (≥0.05%) ([2]; Oxidative destruction): 18
- Purity of main peak ([2]; Oxidative destruction): 91.6% and 91.8%
- Total Impurities ([2]; Oxidative destruction): 8.2%
Compound: CC[C@@H](c1ccccc1)N1Cc2cc3c(cc2C[C@H]1C(=O)N[C@@H](Cc1ccc(-c2ccnc(C)c2C)cc1)C(=O)O)OC[C@H](c1ccc(OCc2ccc(Cl)c(Cl)c2)cc1)O3 [OAD2, (S)-2-(3S,8S)-3-(4-(3,4-dichlorobenzyloxy)phenyl-7-((S)-1-phenylpropyl)-2,3,6,7,8,9-hexahydro-[1,4]-dioxino[2,3-g]isoquinolin-8-ylformylamino)-3-(4-(2,3-dimethylpyridin-4-yl)phenyl)propionic acid]
